# Experimental data as given in patent US7501419B2, “4-Squarylpiperazine derivatives as antiviral agents” (priority 2006, dated 2009).
# Test system: HIV-1
# Assay: Single-round infectious HIV-1 luciferase reporter virus infection of HeLa CD4 cells
# Assay type: cell-based
# Settings: Human immunodeficiency virus 1, HeLa, 72 h
# Experimental: • Virus production—Human embryonic Kidney cell line, 293T, was propagated in Dulbecco's Modified Eagle Medium (Invitrogen, Carlsbad, Calif.) containing 10% fetal Bovine serum (FBS, Sigma, St. Louis, Mo.). • Virus infection—Human epithelial cell line, HeLa, expressing the HIV-1 receptor CD4 was propagated in Dulbecco's Modified Eagle Medium (Invitrogen, Carlsbad, Calif.) containing 10% fetal Bovine serum (FBS, Sigma, St. Louis , Mo.) and supplemented with 0.2 mg/mL Geneticin (Invitrogen, Carlsbad, Calif.).
# Transfections were performed using lipofectAMINE PLUS reagent as described by the manufacturer (Invitrogen, Carlsbad, Calif.).
# • 1. […] Compound was added in a 2 μl dimethylsulfoxide solution, so that the final assay concentration would be ≦10 μM. • 3. 100 μl of single-round infectious reporter virus in Dulbecco's Modified Eagle Medium was then added to the plated cells and compound at an approximate multiplicity of infection (MOI) of 0.01, resulting in a final volume of 200 μl per well. • 4. Virally-infected cells were incubated at 37 degrees Celsius, in a CO2 incubator, and harvested 72 h after infection. • 5. Viral infection was monitored by measuring luciferase expression from viral DNA in the infected cells using a luciferase reporter gene assay kit, as described by the manufacturer (Roche Molecular Biochemicals, Indianapolis, Ind.). Infected cell supernatants were removed and 50 μl of lysis buffer was added per well. After 15 minutes, 50 μl of freshly-reconstituted luciferase assay reagent was added per well. Luciferase activity was then quantified by measuring luminescence using a Wallac microbeta scintillation counter. • 6. […] An EC50 provides a method for comparing the antiviral potency of the compounds of this disclosure. The effective concentration for fifty percent inhibition (EC50) was calculated with the Microsoft Excel Xlfit curve fitting software. For each compound, curves were generated from percent inhibition calculated at 10 different concentrations by using a four parameter logistic model (model 205).
row,SMILES,EC50
1,COc1ncc(OC)c2c(C(=O)C(=O)N3CCN(c4c(-c5cccs5)c(=O)c4=O)CC3)c[nH]c12 [Number 30],0.05 to 0.5 µM
2,O=C(C(=O)N1CCN(c2c(-c3cccs3)c(=O)c2=O)CC1)c1c[nH]c2cccc(F)c12 [Number 27],0.05 to 0.5 µM
3,COc1ncc(OC)c2c(C(=O)C(=O)N3CCN(c4c(-c5ccccc5)c(=O)c4=O)C[C@H]3C)c[nH]c12 [Number 32],0.05 to 0.5 µM
4,COc1ncc(OC)c2c(C(=O)C(=O)N3CCN(c4c(-c5ccccc5)c(=O)c4=O)[C@@H](C)C3)c[nH]c12 [Number 38],0.05 to 0.5 µM
5,COc1ncc(OC)c2c(C(=O)C(=O)N3CCN(c4c(-c5ncco5)c(=O)c4=O)CC3)c[nH]c12 [Number 37],0.5 to 5 µM
6,COc1ncc(OC)c2c(C(=O)C(=O)N3CCN(c4c(-c5ccc(F)cc5)c(=O)c4=O)CC3)c[nH]c12 [Number 41],0.05 to 0.5 µM
7,COc1ncc(OC)c2c(C(=O)C(=O)N3CCN(c4c(-c5ccccc5)c(=O)c4=O)C[C@@H]3C)c[nH]c12 [Number 33],0.05 to 0.5 µM
8,COc1ncc(OC)c2c(C(=O)C(=O)N3CCN(c4c(-c5ccccc5)c(=O)c4=O)CC3)c[nH]c12 [Number 29],0.05 to 0.5 µM
9,O=C(C(=O)N1CCN(c2c(N3CCSCC3)c(=O)c2=O)CC1)c1c[nH]c2cccc(F)c12 [Number 21],> 5 µM
10,O=C(C(=O)N1CCN(c2c(-c3ccco3)c(=O)c2=O)CC1)c1c[nH]c2cccc(F)c12 [Number 28],0.5 to 5 µM
11,COc1cccc(-c2c(N3CCN(C(=O)C(=O)c4c[nH]c5c(OC)ncc(OC)c45)CC3)c(=O)c2=O)c1 [Number 42],0.05 to 0.5 µM
12,COc1ncc(OC)c2c(C(=O)C(=O)N3CCN(c4c(-c5nccs5)c(=O)c4=O)CC3)c[nH]c12 [Number 43],0.5 to 5 µM
13,COc1cnc(-n2cncn2)c2[nH]cc(C(=O)C(=O)N3CCN(c4c(-c5ccccc5)c(=O)c4=O)CC3)c12 [Number 36],0.05 to 0.5 µM
14,O=C(C(=O)N1CCN(c2c(N3CCc4ccccc4C3)c(=O)c2=O)CC1)c1c[nH]c2cccc(F)c12 [Number 23],> 5 µM
15,COc1cnc(Cl)c2[nH]cc(C(=O)C(=O)N3CCN(c4c(-c5ccccc5)c(=O)c4=O)CC3)c12 [Number 31],0.05 to 0.5 µM
16,CCCN(CCC)c1c(N2CCN(C(=O)C(=O)c3c[nH]c4cccc(F)c34)CC2)c(=O)c1=O [Number 25],> 5 µM
17,COc1cnc(-n2ccc(C)n2)c2[nH]cc(C(=O)C(=O)N3CCN(c4c(-c5ccccc5)c(=O)c4=O)CC3)c12 [Number 40],0.05 to 0.5 µM
18,COc1ncc(OC)c2c(C(=O)C(=O)N3CCN(c4c(-c5ccccc5)c(=O)c4=O)[C@H](C)C3)c[nH]c12 [Number 39],0.05 to 0.5 µM
19,O=C(C(=O)N1CCN(c2c(N3CCC4(CCCC4)CC3)c(=O)c2=O)CC1)c1c[nH]c2cccc(F)c12 [Number 26],> 5 µM
20,CN1CCN(c2c(N3CCN(C(=O)C(=O)c4c[nH]c5cccc(F)c45)CC3)c(=O)c2=O)CC1 [Number 24],> 5 µM
21,COc1cnc(Br)c2[nH]cc(C(=O)C(=O)N3CCN(c4c(-c5ccccc5)c(=O)c4=O)CC3)c12 [Number 34],0.05 to 0.5 µM
22,COc1cnc(-c2cnccn2)c2[nH]cc(C(=O)C(=O)N3CCN(c4c(-c5ccccc5)c(=O)c4=O)CC3)c12 [Number 35],0.05 to 0.5 µM
23,CCN(Cc1ccccc1)c1c(N2CCN(C(=O)C(=O)c3c[nH]c4cccc(F)c34)CC2)c(=O)c1=O [Number 22],> 5 µM
